{"source": "patent US12364689B2", "about": "“Dosage regimen for the treatment of cancer” (AstraZeneca AB, priority 2020, dated 2025)", "origin": "cited, not measured here", "key": {"ERα receptor [1]": {"target": "T1, ERα receptor (Homo sapiens, UniProt P03372)", "T1 sequence (P03372 1-595)": "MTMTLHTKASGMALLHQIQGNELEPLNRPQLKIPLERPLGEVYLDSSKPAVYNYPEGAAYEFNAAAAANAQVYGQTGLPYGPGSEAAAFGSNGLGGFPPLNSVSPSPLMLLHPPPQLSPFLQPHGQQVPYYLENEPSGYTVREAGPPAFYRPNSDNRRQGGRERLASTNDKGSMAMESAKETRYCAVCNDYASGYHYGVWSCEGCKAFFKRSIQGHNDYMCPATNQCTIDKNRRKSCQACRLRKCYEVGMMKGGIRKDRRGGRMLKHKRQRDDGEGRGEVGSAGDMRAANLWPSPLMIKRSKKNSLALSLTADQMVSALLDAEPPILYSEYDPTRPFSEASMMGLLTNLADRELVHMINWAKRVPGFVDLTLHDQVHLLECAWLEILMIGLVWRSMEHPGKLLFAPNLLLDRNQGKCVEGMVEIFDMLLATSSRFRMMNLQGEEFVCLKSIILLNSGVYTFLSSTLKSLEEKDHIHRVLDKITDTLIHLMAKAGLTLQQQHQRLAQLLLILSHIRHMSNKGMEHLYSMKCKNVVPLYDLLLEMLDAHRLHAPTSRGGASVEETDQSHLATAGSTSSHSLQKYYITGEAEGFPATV", "conditions": "500 mg monthly dose; cited from earlier work"}, "ERα receptor [2]": {"target": "T1, ERα receptor", "conditions": "in vitro breast cell line experiments; cited from earlier work"}}}
{"smiles": "C[C@]12CC[C@@H]3c4ccc(O)cc4C[C@@H](CCCCCCCCC[S+]([O-])CCCC(F)(F)C(F)(F)F)[C@H]3[C@@H]1CC[C@@H]2O", "note": "(some centres unmarked) [Fulvestrant, fulvestrant]", "values": [{"measurement": "turnover of the receptor in patient samples", "setting": "ERα receptor [1]", "result": "less than 50%"}, {"measurement": "down-regulation of the receptor", "setting": "ERα receptor [2]", "result": "complete down-regulation"}]}
